Values after ≈ are worked out from the molar mass of the structure shown. Where two headings read alike, the source gives them in different places.
Tests used:
[1] = Near-saturation concentration at neutral pH; format: physicochemical; conditions: organic solvent or mixture, in 0.5 M 2-mercaptoethanol, room temperature, read-out: concentration of an almost saturated solution
Method: 2-Amino-4-hydroxy-6-methyl-6-phenyl-5,6,7,8-tetrahydropteridine ([…]): The above dry quinoid-dihydropteridine was reduced in near quantitative yield by addition of 0.5 M 2-mercaptoethanol at room temperature, such that the final concentration of product was approximately 10 mM (an almost saturated solution at neutral pH). To obtain the pure dihydrochloride salt, this solution was rotary evaporated to an oil which was dissolved in 2M HCl in methanol and 4 volumes of ethyl ether added, and the precipitate collected by centrifugation and washed twice by resuspension in fresh ethyl ether, followed by centrifugation.

[2] = system: striatal tyrosine hydroxylase; conditions: cited from earlier work
[3] = system: phenylalanine hydroxylase; conditions: cited from earlier work
[4] = Spectrophotometric pKa determination of quinoid dihydropterin; format: physicochemical; conditions: sodium succinate buffer; transition between neutral and monocationic species; sodium succinate buffers, I=0.01, 25°C
Method: pKa. The pKa for the transition between the neutral and monocationic species of q-6,6-Me₂PH₂ was determined spectrophotometrically. A concentrated stock solution of quinoid, free of elemental bromine, in n-propanol was diluted to 0.1 mM into a series of sodium succinate buffers at constant ionic strength (I=0.01). Spectra, background corrected for each buffer individually, were acquired on a Perkin-Elmer 552 spectrophotometer thermostated to 25°C.

[5] = Stability (decay) of quinoid-6,6-Me2PH2 monitored spectrophotometrically; format: physicochemical
Method: Stability. The decay of q-6,6-Me₂PH₂ in a variety of environments was monitored spectrophotometrically. […] In water, a plateau of highest stability is observed near neutral pH. At pH 6.8, solutions kept on ice have a half-life greater than 100 hours. […] Loss of quinoid is somewhat increased in acid and greatly accelerated in base. […] This process is not affected by the presence of oxygen.

[6] = Non-enzymatic reduction of quinoid-6,6-Me2PH2 by physiological reducing agents; format: physicochemical; conditions: 0.1 M Tris·HCl, pH 7.4 at 37°
Method: Non-Enzymatic Reduction of Quinoid-6,6-Me₂PH₂ under Physiological Conditions. Aromatic amino acid hydroxylase cofactor analogs which are relatively stable in the quinoid-dihydro form may have therapeutic potential for treatment of dihydropteridine reductase deficiency. Thus, it was of interest to determine the rate at which quinoid is reduced to the tetrahydropterin by various physiological reducing agents. Rates were measured in 0.1 M Tris·HCl, pH 7.4 at 37°, from the decrease in absorbance at 340 nm. A reaction first order in each component was observed. With NADH, NADPH and absorbic acid, the rate of reduction (k=660 M⁻¹min⁻¹) was the same. The rate with cysteine was about four times slower (k=160 M⁻¹min⁻¹).

[7] = biological target: T1, phenylalanine hydroxylase (Rattus norvegicus, UniProt P04176); assay: Inhibition of phenylalanine hydroxylase by dihydropterins; format: biochemical; conditions: concentrations up to 0.4 mM; 6,6-Me2PH4 as cofactor 0.05-0.3 mM
T1 construct: from tissue
T1 sequence (P04176 1-453): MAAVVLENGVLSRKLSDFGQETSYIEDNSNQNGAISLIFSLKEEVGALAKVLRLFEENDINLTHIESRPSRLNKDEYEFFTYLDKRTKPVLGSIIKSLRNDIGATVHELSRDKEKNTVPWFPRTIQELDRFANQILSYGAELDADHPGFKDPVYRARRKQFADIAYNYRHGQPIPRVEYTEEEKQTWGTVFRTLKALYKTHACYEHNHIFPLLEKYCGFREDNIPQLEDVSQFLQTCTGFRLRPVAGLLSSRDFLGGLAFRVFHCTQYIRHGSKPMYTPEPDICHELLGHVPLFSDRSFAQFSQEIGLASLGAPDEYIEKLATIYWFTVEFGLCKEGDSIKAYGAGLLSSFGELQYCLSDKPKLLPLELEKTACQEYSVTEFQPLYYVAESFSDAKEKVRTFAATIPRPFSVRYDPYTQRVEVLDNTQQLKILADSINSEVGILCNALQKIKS
Method: Measurements were made under standard assay conditions with cofactor concentration varied between 0.05 and 0.3 mM. Stock solutions of 6,6-Me₂PH₂ were in 0.1 M assay buffer.
Standard assay conditions, with 6-MePH₄ as cofactor over a range of 0.05 mM to 0.3 mM, were employed.

[8] = biological target: T2, Beef Liver Dihydropteridine Reductase (Bos taurus, UniProt Q3T0Z7); assay: Quinoid dihydropterin as substrate for dihydropteridine reductase (beef liver); format: biochemical
T2 construct: from tissue; host or cells: beef liver
T2 sequence (Q3T0Z7 1-242): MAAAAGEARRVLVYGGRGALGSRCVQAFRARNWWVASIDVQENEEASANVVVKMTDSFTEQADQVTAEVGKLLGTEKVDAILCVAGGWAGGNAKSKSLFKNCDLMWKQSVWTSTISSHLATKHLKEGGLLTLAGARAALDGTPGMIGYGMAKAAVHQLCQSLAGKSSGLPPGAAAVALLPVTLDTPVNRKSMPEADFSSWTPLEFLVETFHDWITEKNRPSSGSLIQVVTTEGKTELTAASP
Method: (§1) The quinoid was generated from 6,6-Me₂PH₄, as outlined previously. […] Peroxidase (6 units/ml final volume) was temperature equilibrated in 0.1 M Tris·HCl, pH 7.4, at 27° for 5 minutes. H₂O₂ (1.2 mM final concentration) was then added, followed by 6,6-Me₂PH₄. […] At 5 minutes, 6,6-Me₂PH₄ was introduced and monitored at 340 nm. […] Reaction was then initiated with dihydropteridine reductase (0.01 units/ml). Rates were calculated from the enzyme dependent decrease in O.D. at 340 nm, using an extinction coefficient of 9.8 for the chemically synthesized substrate and 6.2 for the peroxidase- and phenylalanine-hydroxylase-containing reactions in which the pterin is maintained in the quinoid form.

[9] = biological target: T3, Sheep Liver Dihydropteridine Reductase (Ovis aries, UniProt A0ACI6QPJ5); assay: Quinoid dihydropterin as substrate for dihydropteridine reductase (sheep liver); format: biochemical
T3 sequence (A0ACI6QPJ5 46-254): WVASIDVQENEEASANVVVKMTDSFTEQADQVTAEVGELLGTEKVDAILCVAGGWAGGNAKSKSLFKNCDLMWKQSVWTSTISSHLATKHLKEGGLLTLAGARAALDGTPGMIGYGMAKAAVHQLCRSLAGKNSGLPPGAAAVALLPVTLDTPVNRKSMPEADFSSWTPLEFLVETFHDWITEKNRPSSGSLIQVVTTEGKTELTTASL
Method: as §1, with “6,6-Me₂PH₄. Conversion to q-6,6-Me₂PH₂, monitored at 340 nm, was complete within a few seconds. • (iii) Generation by phenylalanine hydroxylase:” for “6,6-Me₂PH₄.”, “nm. Conversion of 6,6-Me₂PH₄ to quinoid dihydropterin was complete in 1-7 minutes, depending on the concentration.” for “nm.”, “form. […] This Km was obtained regardless of the method of generation of the quinoid dihydropterin. The Vmax's were also the same for the dihydropteridine reductase catalyzed reduction of quinoid generated by any of the three methods (Table VI). Thus, the quinoid products of each procedure appear to behave equally.” for “form.”

[10] = orally 0.6 mg-1.25 mg/kg; cited from earlier work
[11] = 2.75 mg (p.o.)/kg, one patient; cited from earlier work
[12] = substrate produced by Bromine oxidation
[13] = substrate produced by Phe hydroxylase + phe

Structure (SMILES): CC1(c2ccccc2)CNc2nc(N)nc(O)c2N1 (stereo not shown) [6-Phenyl-6-Methyl-PH4, 2-Amino-4-hydroxy-6-methyl-6-phenyl-5,6,7,8-tetrahydropteridine]
- solubility [1]: ~10 mM (≈ 2570 µg/mL)

Structure (SMILES): Nc1nc2c(c(=O)[nH]1)NC(c1ccccc1)CN2 (stereo not shown) [Compound 6-Phenyl-PH4, 6-phenyltetrahydropterin]
- increase of Vmax compared to tetrahydrobiopterin [2]: 10 fold
- decrease of Vmax compared to tetrahydrobiopterin [3]: 10 fold

Structure (SMILES): CC1(C)CNC2=NC(N)=NC(=O)C2=N1 [Quinoid-6,6-Me2PH2, 2-Amino-6,6-dimethyl-4-hydroxyquinoid-dihydropteridine]
- pKa [4]: 5.15 ± 0.05
- stability relative to the quinoid forms of 6-methyldihydropterin or dihydrobiopterin [5]: one to two orders of magnitude more stable
- half-life ([5]; 0.1 m tris-hcl, air, pH 7.4, pH 7.4 (0.1 M Tris·HCl), 27°C, air, read-out: t 1/2 (converted)): 4 h
- half-life ([5]; 0.1 m tris-hcl, air, pH 7.4, pH 7.4 (0.1 M Tris·HCl), 37°C, air, read-out: t 1/2 (converted)): 1.25 h
- half-life ([5]; 0.1 m tris-hcl, argon, pH 7.4, pH 7.4 (0.1 M Tris·HCl), 37°C, argon, read-out: t 1/2 (converted)): 1.25 h
- half-life ([5]; 1n hcl, air, pH 0, pH 0 (1N HCl), 37°C, air, read-out: t 1/2 (converted)): 0.75 h
- half-life ([5]; 1n hcl, argon, pH 0, pH 0 (1N HCl), 37°C, argon, read-out: t 1/2 (converted)): 0.75 h
- half-life ([5]; aerated (CH3)2SO at -80°C): several weeks
- half-life ([5]; dmso, aerated (CH3)2SO at ambient temperature, read-out: half-life (converted)): ~48 h
- rearrangement to a 7,8-dihydropterin ([5]; in contrast to quinoid dihydropterin monosubstituted at C6): does not appear to rearrange to a 7,8-dihydropterin
- t 1/2 ([5]; pH 6.8 (Tris-MES 0.1M), 0°C (on ice), air): 104 h
- storage stability of the dry powder ([5]; stored desiccated for several months at -80°C): no detectable change
- half-life ([5]; tris-mes 0.1 m, air, pH 6.8, pH 6.8 (Tris-MES 0.1M), 0°C (on ice), air, read-out: t 1/2 (converted)): > 100 h
- rate of reduction (k) ([6]; with NADH): 11 M⁻¹ s⁻¹
- rate of reduction (k) ([6]; with NADPH): 11 M⁻¹ s⁻¹
- rate of reduction (k) ([6]; with absorbic acid): 11 M⁻¹ s⁻¹
- rate of reduction (k) ([6]; with cysteine): 2.67 M⁻¹ s⁻¹
- inhibition of purified phenylalanine hydroxylase [7]: No inhibition
- Relative Vmax Beef [8, 12]: 1
- Relative Vmax Beef ([8]; substrate produced by Peroxidase + H2O2): 1
- Relative Vmax Beef [8, 13]: 1
- Relative Vmax Sheep [9, 12]: 1
- Relative Vmax Sheep [9, 13]: 1

Structure (SMILES): C[C@H](O)C(=O)C1=Nc2c(nc(N)[nH]c2=O)NC1 [sepiapterin]
- time normal levels of phenylalanine were maintained [10]: 24 h
- effect on neurological symptoms [11]: shown to have an effect

Reference: patent publication EP0138995B1, “REGULATION OF ENZYMES WHICH UTILIZE TETRAHYDROBIOPTERIN OR TETRAHYDROFOLATE COFACTORS WITH 6, 6-DISUBSTITUTED-TETRAHYDROPTERIDINES” (South Alabama Medical Science Foundation, priority 1983, dated 1984)
